Measured values published in patent US10821078B2, “Nanostructure enhanced targeting (NSET) of inflammatory cells” (Northwestern University, priority 2016, dated 2020).
Where two headings read alike, the source gives them in different places.

Key:
[1] = Organ-level biodistribution of ICG-loaded nanostructures by IVIS NIR fluorescence imaging; type: in vivo, mouse; conditions: 24 h after I.V. injection, C57BL/6 mice
Description: Nanomaterials have been widely used to deliver therapeutic agents in vivo, and their tissue distribution can either limit or enhance such applications. ICG-loaded MC, PS and FM were therefore assembled at a 33:1 molar ratio of copolymer:dye, and their biodistributions were compared to control injections of free form ICG and PBS in naïve C57BL/6 mice. Liver, spleen, kidneys, lung and heart were harvested and investigated with an IVIS optical imaging system. Following I.V. injection, ICG usually has a half-life of less than 10 minutes primarily due to removal from circulation in the liver.
The ICG-loaded MC, PS and FM were prepared with the optimal molar ratio of PEG-bl-PPS:ICG (33:1) and suspended in PBS. Free ICG (50 μg/mL in PBS solution) served as a control. C57BL/6 mice (n=6) were injected intravenously with 150 μl of free ICG, MC, PS and FM (7.5 μg of loaded ICG in each sample). At different time points (1 h, 24 h, and 48 h post-injection), whole-body NIR fluorescence imaging was performed using an IVIS Lumina (Center for Advanced Molecular Imaging, Northwestern University) with λexc=745 nm, λem=810 nm, exposure time=2 s and f/stop=2. For organ NIR fluorescence imaging, animals were euthanized by carbon dioxide and liver, spleen, kidney, heart, and lung were harvested in petri dishes and imaged by the IVIS Lumina with the same parameters as previous.

[2] = removal from circulation in the liver; cited from earlier work
[3] = tested on: macrophages (CD11b+F4/80+); conditions: mouse, in vivo
Procedure: Multi-color flow cytometry was performed to evaluate the uptake of NS of the present invention within cells of the innate and adaptive immune system. Mice were administered DyLight 650-labeled PS, MC and FM by tail vein injection. After different time points (1 h, 24 h, and 48 h), spleen, LN, liver, kidneys, and blood were collected and prepared into single cell suspensions for analysis (gating strategies shown in FIG. 11). For all organs evaluated, NS were predominantly taken up by phagocytic cells in the MPS (FIG. 3, FIG. 12).
C57BL/6 female mice (n=6-8), were injected intravenously with 150 μl of MC, PS, and FM with block copolymer concentration of 15 mg/mL. At different time points (1 h, 24 h, and 48 h post-injection), mice were anesthetized by intraperitoneal (i.p.) injection of a mixture of Ketamine/Xylazine followed by exsanguination. Blood was collected by retro-orbital puncture with BD Microtainer tubes and dipotassium EDTA (BD Biosciences). Serum was separated by centrifugation at 3000 rpm at 4° C. for 25 min. Fluorescence intensity of each nanostructure was normalized by diluting NS solutions in PBS and measuring the fluorescence using a spectrophotometer. The fluorescence of blood serum was measured with an excitation of 655 nm and the emission of 675 nm and correlated with the normalized standard curve for each DyLight 650-labeled NS. To prepare white blood cell suspensions, blood cells were washed twice with 10 ml PBS and treated 3× with ammonium-chloride-potassium (ACK) lysis buffer (Invivogen) to eliminate red blood cells. Liver, spleen, LN (popliteal, inguinal, axillary and brachial), and kidneys were harvested, gently dissociated and incubated in a 12-well plate with each well of 2 ml Collagenase D (2 mg/mL) for 45 min at 37° C. and 5% CO2. Single-cell suspensions were prepared by mechanical dissociation and passing through a 70 μm cell strainer. Anti-mouse CD16/CD32 was used to block FcRs and Zombie Aqua fixable viability dye was used to determine live/dead cells. For flow cytometric analysis, cells were stained using cocktails of fluorophore-conjugated anti-mouse antibodies: panel 1: CD45-FITC, CD3-APC/Cy7, CD4-PE, CD8α-PE/Cy7, NK1.1-PerCP-Cy5.5, CD19-Pacific Blue; panel 2: I-A/I-E-FITC, CD11c-Pacific Blue, CD8α-PE-Cy7, CD11b-PerCP-Cy5.5, CD45RB/B220-PE, Gr-1-APC-Cy7; and panel 3: F4/80-FITC, CD11c-Pacific Blue, CD11b-PerCP-Cy5.5, Ly6C-APC/Cy7, Ly6G-PE/Cy7. After washes, cells were fixed by IC cell fixation buffer (Biosciences). Flow cytometry was performed with FACSDiva on a LSRII flow cytometer (BD Biosciences) and data were analyzed with FlowJo software.

Compound | ICG fluorescence in organs [1] | half-life following I.V. injection [2] | decrease in uptake by liver macrophages on switching from MC to PS morphology [3] | percentage of macrophages nanostructure positive [3] | percentage of macrophages nanostructure positive ([3]; iv)
CC1(C)C(/C=C/C=C/C=C/C=C2\N(CCCCS(=O)(=O)O)c3ccc4ccccc4c3C2(C)C)=[N+](CCCCS(=O)(=O)[O-])c2ccc3ccccc3c21 [ICG, indocyanine green] | no observable fluorescence | less than 10 minutes |  |  | 
PEG17-bl-PPS30 |  |  | over 50% | 40% | 30%-40%
PEG44-bl-PPS45 [FM] |  |  |  | 25% | 
PEG45-bl-PPS20 [MC] |  |  |  | over 90% | 
